The source made the active and inactive calls. The rule behind the calls is not given here.

The test concerns the target glucose-6-phosphate dehydrogenase-6-phosphogluconolactonase (Plasmodium falciparum 3D7). The experiment in a line: concentration-dependent PfGluPho enzyme inhibition – biochemical, fluorescence intensity, dose response (AID 504765). The following applies: Recombinant PfG6PD enzyme, fluorescence intensity (NADPH).
With `CC1(C)Cc2c(sc3nc4n(-c5ccccc5)c(=O)c(CCC(=O)O)nn4c(=O)c23)CO1`, the half-maximal inhibitory concentration (IC50) was 4.1 µM.

As for `COC1(OC)C=CC(=O)C=C1NC(=O)c1ccccc1OC(C)=O`, the IC50 is 9.27 µM.

Turning to `C[C@H](NC(N)=O)C(=O)Nc1ccc(N2CCOCC2)c(S(=O)(=O)Nc2ccc(Cl)cc2)c1`, the IC50 entry was “inactive”.

On to `N#C/C(C(=O)Nc1ccc(Cl)cc1)=C(/S)Nc1ccccc1`, for which the IC50 is 1.89 µM.

Regarding `CCCCCCCCn1sccc1=O`, the IC50 was 3.75 µM.

`COc1ccc(/C=C/c2nc3ccccc3n2C)cc1`: the IC50 is 8.04 µM.

Take `COc1c2ccoc2c(OCC=C(C)C)c2oc(=O)ccc12`: the IC50 entry was “inactive”.

In the case of `Cc1ccc(-n2sc3cc(F)ccc3c2=O)c(C)c1`, the IC50 is 1.43 µM.

As for `CN(C)C=Nc1ccc2nc3c(cc2c1)[nH]c1ccccc13`, the IC50 was 9.98 µM.

Turning to `Cc1nc(COC(=O)c2cc(O)c3ccccc3c2O)cs1`, the IC50 was 3.52 µM.

For `COC(=O)C1=C(C(=O)OC)SC2(S1)C(C(=O)OC)=C(C(=O)OC)Sc1c2ssc1=O`, the half-maximal inhibitory concentration (IC50) was 1.4 µM.

In the case of `NS(=O)(=O)c1ccc(N/N=C/c2ccc(O)c(O)c2O)c([N+](=O)[O-])c1`, the IC50 is 5.7 µM.

Consider `NS(=O)(=O)c1ccc(-c2ccc(C=C3C(=O)NC(=O)NC3=O)o2)cc1`, for which the IC50 was 3.14 µM.

For the compound `CC(C)Cn1c([N+](=O)[O-])nc2c1c(=O)[nH]c(=O)n2C`, the half-inhibitory concentration (IC50) was 14.3 µM.

Consider `NCCNc1ccc(C(=O)N2c3ccccc3Sc3ccccc32)cc1[N+](=O)[O-]`, for which the IC50 was 13.3 µM.

For `COc1cc(C(=O)O/N=C2\C=CC(=O)C=C2C)cc(OC)c1OC`, the IC50 was 14.1 µM.

For `CCc1nnc(NC(=O)c2ccc(Cl)nc2)s1`, the IC50 was 15.5 µM.

In the case of `O=C1Nc2cc(C(=O)NCCCN3CCCC3)ccc2S/C1=C\c1ccccc1`, the IC50 was 9.3 µM.

For `Cc1nnc(SCC(=O)c2cc(C)n(-c3ccc4c(c3)OCO4)c2C)s1`, the half-maximal inhibitory concentration (IC50) is 7.35 µM.

With `CN1CCN(C(=S)c2ccc([N+](=O)[O-])cc2)CC1`, the IC50 entry was “inactive”.

For the compound `Cc1ccc(NNS(=O)(=O)c2ccc(C)cc2)cc1`, the IC50 was 12.6 µM.

As to `Oc1ccc(/C=N/N=C(c2ccccc2)c2ccccc2)c(O)c1O`, the IC50 was 13.6 µM.

For the compound `COc1ccc(Nc2cc(C)c3c(O)cccc3n2)cc1`, the IC50 was 5.06 µM.

For the compound `COc1cc(O)c(C(=O)O)c(-c2cc(O)c(O)cc2C)c1`, the IC50 was 3.75 µM.

With `O=C(CSc1nc2ccc(Cl)cc2[nH]1)NC1CCCc2ccccc21` (stereo not drawn), the IC50 is 15.6 µM.

As to `Oc1ccc(C23CC4CC(CC(C4)C2)C3)cc1O`, the IC50 result was “inactive”.

With `C=C1C(=O)O[C@@H]2C[C@@H](C)[C@@H]3C=CC(=O)[C@@]3(C)[C@@H](OC(=O)CC(=O)O[C@H]3[C@@H]4C(=C)C(=O)O[C@@H]4C[C@@H](C)[C@@H]4C=CC(=O)[C@]43C)[C@H]12`, the IC50 is 13.3 µM.

Turning to `O=c1c2ccccc2sn1-c1ccc(Cl)cc1Cl`, the IC50 was 3.98 µM.

`CCN(CC)c1nc(N)nc(NS(=O)(=O)c2ccc(Cl)cc2)n1`: the IC50 is 6.15 µM.

Regarding `Nc1[nH]c(=O)[nH]c(=O)c1N=Cc1ccccc1`, the half-inhibitory concentration (IC50) was 3.29 µM.

With `c1nc(SSc2ncnc3nc[nH]c23)c2[nH]cnc2n1`, the IC50 was 4.78 µM.

Regarding `CN=c1scc(C)n1/N=C/c1ccc(O)c(O)c1O`, the half-maximal inhibitory concentration (IC50) was 3.98 µM.

For the compound `C#CCCc1cscc1/C=[N+](\[O-])c1ccc(C(=O)OCC)cc1`, the IC50 is 2.98 µM.

As for `COc1ccc(NC(=S)N(CCC(C)C)C2CCN(C(C)C)CC2)cc1Cl`, the IC50 is 14.3 µM.

With `CC(C)c1cc2c(c(O)c1O)[C@@]13CCCC(C)(C)C1CC2OC3=O` (stereo partly drawn), the IC50 is 4.95 µM.

As for `CC(C)c1nnc(NC(=O)c2cc3ccccc3o2)s1`, the IC50 was 16.5 µM.

For the compound `O=[N+]([O-])c1ccc(Sc2cccc3cccnc23)c2cccnc12`, the IC50 was 16.5 µM.

In the case of `Cn1c(=O)[nH]c(=O)c2c1nc(SCCN1CCCCC1)n2CCCc1ccccc1`, the IC50 was 14.2 µM.

For `CC1=NOC(=O)/C1=C\c1ccc(-c2ccccc2Br)o1`, the IC50 result is “inactive”.

For the compound `COc1ccc(CCn2c(NN)nc3c2c(=O)[nH]c(=O)n3C)cc1`, the IC50 was 7.35 µM.

For `O=C1OC(c2ccc3ccccc3c2O)(c2ccc3ccccc3c2O)c2ccccc21`, the IC50 was 14.5 µM.

With `CN(C)c1nc(=NCc2cccs2)ss1`, the IC50 is 11.9 µM.

`O=c1c2cc(C(F)(F)F)ccc2sn1-c1ccccc1`: the IC50 was 3.89 µM.

Consider `Clc1nssc1=Nc1nncs1`, for which the IC50 was 14.3 µM.

Take `Clc1ccc(N=c2ssnc2Cl)nc1`: the IC50 result was “inactive”.

Take `COC(=O)CCC(=O)OC1(C)C(=O)C2=CN(c3ccc(OC)cc3)C(c3ccc(OC)cc3)=CC2=C(Br)C1=O` (stereo not drawn): the IC50 is 3.09 µM.

With `CCN(CC)c1ccc(NC(=O)c2cccc(C)c2)cc1S(=O)(=O)Nc1ccccc1OC`, the IC50 result is “inactive”.

In the case of `CCOC(=O)CSc1nnc(NC(=O)c2cccc([N+](=O)[O-])c2)s1`, the IC50 is 6.49 µM.

In the case of `COc1ccc(-n2sc3ccccc3c2=O)cc1`, the IC50 was 1.49 µM.

As for `COc1cccc(/C=N/NC(=O)c2c(C)nc3ccc(Br)cn23)c1`, the IC50 was 2.86 µM.

As to `Cc1ccc(C(=O)Nc2nnc(S(=O)(=O)N3CCC(C)CC3)s2)cc1`, the IC50 entry was “inactive”.

With `N#CC1=C(N)Oc2c(O)cc3ccccc3c2C1c1ccsc1` (stereo not drawn), the IC50 was 6.71 µM.

On to `N#Cc1ccc2sn(-c3ccccc3)c(=O)c2c1`, for which the half-maximal inhibitory concentration (IC50) was 3.47 µM.

On to `O=c1c2ccccc2sn1-c1ccc(Cl)cc1`, for which the IC50 was 2.83 µM.

Consider `CC1N(C)c2cccc3cccc(c23)N1C`, for which the IC50 was 11.2 µM.

In the case of `COc1cc(NCCCn2cnc3c(OCc4ccccc4)ncnc32)cc(OC)c1OC`, the IC50 was > 80 µM (inactive).

As for `COc1cccc2nc3cc(C)c(C)cc3nc12`, the IC50 is 4.69 µM.

For `O=c1c2ccccc2sn1-c1ccc(S(=O)(=O)N2CCCC2)cc1`, the IC50 was 6.88 µM.

As for `Cc1ccc(NC(=O)Cn2sc3ccccc3c2=O)cc1`, the IC50 was 4.24 µM.

For `CCc1ccc(OCC(=O)N/N=C/c2cc([N+](=O)[O-])ccc2N2CCOCC2)cc1`, the IC50 is 8.3 µM.

On to `CC(=O)Nc1ccc2sn(-c3ccccc3)c(=O)c2c1`, for which the IC50 is 2.53 µM.

`Cc1cc(C)nc(NC(N)=NCCc2ccccc2)n1`: the IC50 is 15 µM.

`CN(C)c1ccc2nc3ccc(=O)cc-3sc2c1`: the 50% inhibitory concentration (IC50) was 13.2 µM.

For `Cc1ccc2nc(-c3ccc(NC(=S)NC4CC(C)(C)NC(C)(C)C4)cc3)sc2c1`, the half-maximal inhibitory concentration (IC50) is 2.39 µM.

As to `COC(=O)[C@H](CCSC)NC(=O)c1cc2c(cn1)[nH]c1ccccc12`, the IC50 entry is “inactive”.

Regarding `COc1ccc(N2CSC3=C(C#N)C(c4cc(OC)c(OC)cc4OC)CC(=O)N3C2)c(OC)c1` (stereo not drawn), the IC50 was 3.13 µM.

`Cc1nnc(Sc2cc(NCCO)c([N+](=O)[O-])c3nonc23)s1`: the IC50 was 5.56 µM.

For the compound `Cn1c(=O)[nH]c(=O)c2c1nc([N+](=O)[O-])n2Cc1ccccc1`, the IC50 is 3.16 µM.

As for `CCc1c(C(=O)Nc2ccccc2)c(C)[nH]c(=S)c1C#N`, the IC50 result was “inactive”.

As to `NCCc1cc(O)c(O)cc1O`, the IC50 is 3.51 µM.

Take `Clc1ccc2nc(-c3ccc4c(c3)OCO4)cn2c1`: the IC50 entry was “inactive”.

Turning to `Cc1ccc(-c2c(C(=O)N/N=C/c3cccs3)nnn2-c2nonc2N)cc1`, the IC50 is 3.91 µM.

As to `Nc1ccc2c3c(cccc13)-c1ccccc1-2`, the IC50 entry was “inactive”.

Usually IC50 stands for the concentration needed to halve the response being measured.

These data come from PubChem BioAssay AID504765 (Sanford-Burnham Center for Chemical Genomics, 2011).
